Reference: US11422132B2, “Peptides and uses thereof for diagnosing and treating myasthenia gravis” (The Regents of the University of California, priority 2016, dated 2022)
“Also recorded” adds a separate entry of the source.

Tests used:
Format in all cases: binding, rat
[1] = tested on: mAb 35; test: Western blot of peptide-IChBD fusion proteins probed with mAb 35; set-up: key to mAb 35, fold-change in binding relative to Torpedo 39MIR: ‘—’ denotes no binding; conditions: for mAb 35 binding relative to binding to the Torpedo 39MIR: FIG. 5 Western blots, Torpedo 39MIR single mutants; for mAb 35, fold-change in binding relative to Torpedo 39MIR: Table 1, Western blot of FIG. 5, Torpedo 39MIR single mutants; for mAb 35 binding, result in words: Western blot
Method: (§1) Chitin beads adsorbed with peptide-IChBD fusion proteins were run on an SDS-PAGE gel and transferred to a nitrocellulose membrane and assayed with the four mAbs.
(§2) Chitin beads adsorbed with peptide-IChBD fusion proteins were run on an SDS-PAGE gel and transferred to a nitrocellulose membrane and assayed with the five mAbs.
(§3) To explore the effects of individual amino acid substitutions between the Torpedo and the human AChR MIR mimics, eight peptides were prepared, each with an amino acid substituted from the human sequence into the Torpedo sequence. The single amino acid substitutions in the Torpedo MIR were: N10K (SEQ ID NO:11), L12F (SEQ ID NO:12), R66K (SEQ ID NO:13), A70D (SEQ ID NO:14), I75V (SEQ ID NO:15), R79H (SEQ ID NO:16), D111Q (SEQ ID NO:17), and K115H (SEQ ID NO:18).

[2] = tested on: mAb 132A; test: Western blot of peptide-IChBD fusion proteins probed with mAb 132A; conditions: for mAb 132A binding relative to binding to the Torpedo 39MIR: FIG. 5 Western blots, Torpedo 39MIR single mutants; for mAb 132A, fold-change in binding relative to Torpedo 39MIR: Table 1, Western blot of FIG. 5, Torpedo 39MIR single mutants
Method: as §1, §2, §3

[3] = tested on: mAb 198; test: Western blot of peptide-IChBD fusion proteins probed with mAb 198; conditions: for mAb 198, fold-change in binding relative to Torpedo 39MIR: Table 1, Western blot of FIG. 5, Torpedo 39MIR single mutants
Text: as §1, §2
The Torpedo (SEQ ID NO:9) and human (SEQ ID NO:8) 39MIRs were made by joining the α(1-12), α(65-79), and α(110-115) segments of their respective a subunits with GS linkers. These two MIR mimics were expressed in E. coli as fusion proteins with an IChBD tag to permit peptide collection on chitin beads. These two peptides differ from each other by eight amino acids (FIG. 2). Both mimics were probed with mAb 198. mAb 198, which was derived from rats that had been immunized with human muscle AChR, is a MIR-directed mAb that binds mammalian as well as Torpedo MIR (13,21). It was also able to passively transfer EAMG to rats and binds to both native assembled AChR and to α-subunit fragments in Western blots (22,23). mAb 198 binds to the Torpedo and human MIR peptide mimics in Western blots (FIG. 3). However, mAb 198 binds to the Torpedo mimic about 50 times more strongly than to the human MIR mimic (FIG. 3).
as §3

[4] = tested on: mAb 334; test: Western blot of peptide-IChBD fusion proteins probed with mAb 334; conditions: for mAb 334 binding relative to Torpedo 39MIR: FIG. 5 Western blots, Torpedo 39MIR single mutants; for mAb 334, fold-change in binding relative to Torpedo 39MIR: Table 1, Western blot of FIG. 5, Torpedo 39MIR single mutants
Method: as §2, §3

Sequence	mAb 35 binding relative to binding to the Torpedo 39MIR [1] [×]	mAb 35, fold-change in binding relative to Torpedo 39MIR [1]	mAb 132A binding relative to binding to the Torpedo 39MIR [2] [×]	mAb 132A, fold-change in binding relative to Torpedo 39MIR [2] [fold-change]	mAb 198, fold-change in binding relative to Torpedo 39MIR [3] [fold-change]	mAb 334 binding relative to Torpedo 39MIR [4] [×]	mAb 334, fold-change in binding relative to Torpedo 39MIR [4] [fold-change]	mAb 35 binding, result in words [1]	mAb 198 binding relative to Torpedo 39MIR ([3]; FIG. 5 Western blots, Torpedo 39MIR single mutants) [×]	mAb 132A binding, result in words ([2]; Western blot)
SEHETRLVANLFGGGSLRWNPADYGGIKKIRGSLDYTGK (synthetic main immunogenic region (MIR) peptide) [Mutant L12F, Torpedo 39MIR single mutant (L12F)]	1.42	1.42 fold-change	1.10	1.10	0.90	0.88	0.88			
SEHETRLVANLLGGGSLRWNPADYGGIKKIHGSLDYTGK (synthetic main immunogenic region (MIR) peptide) [Mutant R79H, Torpedo 39MIR single mutant (R79H)]	1.91	1.91 fold-change	1.65	1.65	0.97	2.40	2.40			
SEHETRLVANLLGGGSLRWNPADYGGIKKIRGSLQYTGK (synthetic main immunogenic region (MIR) peptide) [Mutant D111Q, Torpedo 39MIR single mutant (D111Q)]		—	0.07	0.07	0.16	0.02	0.02	did not bind	0.16	
SEHETRLVANLLGGGSLKWNPADYGGIKKIRGSLDYTGK (synthetic main immunogenic region (MIR) peptide) [Mutant R66K, Torpedo 39MIR single mutant (R66K)]	0.62	0.62 fold-change	1.55	1.55	1.03	2.75	2.75			
SEHETRLVANLLGGGSLRWNPADYGGIKKIRGSLDYTGH (synthetic main immunogenic region (MIR) peptide) [Mutant K115H, Torpedo 39MIR single mutant (K115H)]		—	0.40	0.40	1.07	0.42	0.42	did not bind; also recorded: completely abolished		
SEHETRLVAKLFGGGSLKWNPDDYGGVKKIHGSLDYTGH [rat 39 MIR] (synthetic main immunogenic region (MIR) peptide) [Mouse 39MIR; rat/mouse 39MIR homolog]								did not bind		did not bind
